From patent publication US20120121692A1, “COMPOUNDS AND COMPOSITIONS COMPRISING CDK INHIBITORS AND METHODS FOR TREATING CANCER” (SHANDONG UNIVERSITY, priority 2009, published 2012)
Read-outs that look alike come from different tables or passages of the source.

Key:
HCT116 cells = assay: MTT cytotoxicity screening, human colon cancer cell line HCT116; type: cell-based; conditions: Homo sapiens
Text: Human colon cancer cell line HCT116 can be used for the preliminary cytotoxicity screening of the disclosed compounds as disclosed by Mosmann, T., “Rapid colorimetric assay for cellular growth and survival: application to proliferation and cytotoxicity assays.” J. Immunol. Methods, (1983) 65(1-2): p. 55-63 referred to herein further as the “MTT test” which is incorporated herein by reference in its entirety.
The disclosure of Mosmann recites the following. “MTT 93-(4,5-dimethylthirazol-2-yl)-2,5-diphenyl tetrazolium bromide; Sigman catalog no. M2128) was dissolved in PBS at 5 mg/ml and filtered to sterilize and remove a small amount of insoluble residue present in some batches of MTT. At the times indicated below, stock MTT solution (10 ml per 100 ml) was added to all wells of an assay, and plates were incubated at 37° C. for 4 h. Acid-siopropanol (100 ml of 0.04 N HCl in isopropanol) was added to all wells and mixed thoroughly to dissolve the dark blue crystals. After a few minutes at room temperature to ensure that all crystals were dissolved, the plates were read o a Dynatech MR580Microelisa reader, using a test wavelength of 570 nm, a reference wavelength of 630 nm, and a calibration setting of 1.99 (or 1.0 if the samples were strongly colored). Plates were normally read within 1 h of adding the isopropanol.
“Our final procedure was to add 0.01 ml MTT (5 mg/ml in phosphate-buffered saline) to 0.1 ml cells in growth medium. After 4 h at 37° C. for MTT cleavage, the formazan product was solublilized by the addition of 0.1 ml 0.04 N HCl in isopropanol. Optical density was measured on a Dynatech MR 580 plate reader, using a reference wavelength of 630 nm and a test wavelength of 570 nm.” 3-(4,5-Dimethylthiazol-2-yl)-2,5-diphenyltetrazolium bromide, a tetrazole, can pass through cellular membrane to enter into cells. This tetrazole may be reduced to the purple formazan in the mitochondria of living cells, which can diffuse out to form crystals. This crystal can be dissolved in the dimethyl sulfoxide to form a colored solution. The absorbance of this colored solution can be quantified by measuring at certain wavelength (490 nm) using a spectrophotometer. The quantity of the formazan crystal is proportional to the number of living cells.
As used herein, cells were cultured in McCoy's 5A medium supplemented with 10% heat-inactivated Fetal Bovine Serum (FBS) and 5% Penicillin/Streptomycin solution. McCoy's 5A, 1× (Iwakata & Grace modified) medium with L-Glutamine, DPBS, 1× w/o Ca and Mg, Penicillin/Streptomycin solution, Trypsin EDTA, 1× and PBS, 1× w/o Ca and Mg were purchased from Mediatech, Inc. (USA). FBS was purchased from Hyclone (USA).
The cytotoxicity of the compounds was estimated using the MTT assay. A 96-well plate was seeded with 100 μl medium containing HCT116 cells in suspension at a density of 2.5×10^4 cells/ml. After 24 hours of incubation, the cells were treated with the compounds, which were dissolved in DMSO (dimethyl sulfoxide) as stock solutions and diluted to final concentrations of 100 μM, 50 μM, 25 μM, 12.5 μM, 6.25 μM & 1 μM (for compounds tested in the micromolar concentrations) and 10 μM, 1 μM, 500 nM, 250 nM, 125 nM & 62.5 nM (for compounds tested in the nanomolar concentration range) using medium containing 0.1% DMSO. The final concentration of DMSO in the culture medium was maintained at 0.1%-0.001% (v/v). After 48 hrs incubation in the presence of test compounds, the spent medium was removed and the wells were washed twice with 100 μL of PBS solution. 100 μL of fresh medium and 10 μL of MTT (5 mg/ml in PBS) was added to the wells and incubated at 37° C. in dark for 4 hrs. The formazan product was dissolved by adding 100 μL of 100% DMSO after removing the medium from each well and was stabilized by adding 12.5 μL of Sorensen's glycine buffer to each well. […]

[1] = HCT-116, 48 hrs incubation, absorbance 490 nm, primary screening, read-out: IC50
[2] = HCT-116, further evaluated after secondary screening (Table VIII), read-out: IC50 value

Row | Structure (SMILES) | IC50 (HCT116 cells; [1]) [µM] | melting point [°C] | IC50 (HCT116 cells; [2]) [µM]
1 | COc1cc(OC)c(C2=CCNCC2)c(O)c1C(=O)/C=C/c1ccc(Cl)cc1 [Compound B12, (E)-3-(4-chlorophenyl)-1-(2-hydroxy-4,6-dimethoxy-3-(1,2,3,6-tetrahydropyridine-4-yl)phenyl)-2-propylene-1-one] | 4.82 | 93 to 94 | 
2 | COc1cc(OC)c(C2=CCN(C)CC2)c(O)c1C(=O)/C=C/c1cccc([N+](=O)[O-])c1 [Compound A8, (E)-1-(2-hydroxy-4,6-dimethoxy-3-(1-methyl-1,2,3,6-tetrahydropyridine-4-yl)phenyl)-3-(3-nitrophenyl)-2-propylene-1-one] | 10.5 | 128 to 130 | 
3 | COc1cc(OC)c(C(=O)/C=C/c2ccc(Br)cc2)c(O)c1CN1CCOCC1 [Compound D4, (E)-3-(4-bromophenyl)-1-(2-hydroxy-4,6-dimethoxy-3-(morpholin-4-ylmethyl)phenyl)-2-propylene-1-one] | 5.52 | 144 to 145 | ~3
4 | COc1cc(OC)c(C2=CCNCC2)c(O)c1C(=O)/C=C/c1ccc(Br)cc1 [Compound B13, (E)-3-(4-bromophenyl)-1-(2-hydroxy-4,6-dimethoxy-3-(1,2,3,6-tetrahydropyridine-4-yl)phenyl)-2-propylene-1-one] | 18.2 | 120 to 121 | 
5 | COc1cc(OC)c(C(=O)/C=C/c2ccco2)c(O)c1CN1CCOCC1 [Compound E32, (E)-3-(furan-2-yl)-1-(2-hydroxy-4,6-dimethoxy-3-(morpholin-4-ylmethyl)phenyl)-2-propylene-1-one] | 45.7 | 147 to 148 | 
6 | COc1cc(OC)c(C2=CCN(C)CC2)c(O)c1C(=O)/C=C/c1cccc(Cl)c1 [Compound A7, (E)-3-(3-chlorophenyl)-1-(2-hydroxy-4,6-dimethoxy-3-(1-methyl-1,2,3,6-tetrahydropyridine-4-yl)phenyl)-2-propylene-1-one] | 3.24 | 182 to 184 | 
7 | COc1ccc(/C=C/C(=O)c2c(OC)cc(OC)c(CN3CCOCC3)c2O)cc1 [Compound D2, (E)-1-(2-hydroxy-4,6-dimethoxy-3-(morpholin-4-ylmethyl)phenyl)-3-(4-methoxyphenyl)-2-propylene-1-one] | 21.4 | 159 to 160 | 
8 | COc1cc(OC)c(C(=O)/C=C/c2ccc(Cl)cc2)c(O)c1CN1CCOCC1 [Compound D3, (E)-3-(4-chlorophenyl)-1-(2-hydroxy-4,6-dimethoxy-3-(morpholin-4-ylmethyl)phenyl)-2-propylene-1-one] | 6.97 | 140 to 141 | 
9 | COc1cc(OC)c(C2=CCNCC2)c(O)c1C(=O)/C=C/c1ccccc1 [Compound B1, 1-(2-hydroxy-4,6-dimethoxy-3-(1,2,3,6-tetrahydropyridine-4-yl)phenyl)-3-phenyl-2-propylene-1-one] | 8.41 | 118 to 120 | ~0.1
10 | COc1cccc(/C=C/C(=O)c2c(OC)cc(OC)c(C3=CCN(C)CC3)c2O)c1 [Compound A6, (E)-1-(2-hydroxy-4,6-dimethoxy-3-(1-methyl-1,2,3,6-tetrahydropyridine-4-yl)phenyl)-3-(3-methoxyphenyl)-2-propylene-1-one] | 6.78 | 140 to 141 | 
11 | COc1cc(OC)c(C2=CCN(C)CC2)c(O)c1C(=O)/C=C/c1ccc(N(C)C)cc1 [Compound A14, (E)-3-(4-dimethylaminophenyl)-1-(2-hydroxy-4,6-dimethoxy-3-(1-methyl-1,2,3,6-tetrahydropyridine-4-yl)phenyl)-2-propylene-1-one] | 30.5 | 176 to 177 | 
12 | COc1cccc(/C=C/C(=O)c2c(OC)cc(OC)c(C3=CCN(C)CC3)c2O)c1OC [Compound A4, (E)-3-(2,3-dimethoxyphenyl)-1-(2-hydroxy-4,6-dimethoxy-3-(1-methyl-1,2,3,6-tetrahydropyridine-4-yl)phenyl)-2-propylene-1-one] | 5.22 | 171 to 172 | > 1
13 | COc1cc(OC)c(C2=CCN(C)CC2)c(O)c1C(=O)/C=C/c1ccc(Cl)cc1 [Compound A12, (E)-3-(4-chlorophenyl)-1-(2-hydroxy-4,6-dimethoxy-3-(1-methyl-1,2,3,6-tetrahydropyridine-4-yl)phenyl)-2-propylene-1-one] | 8.3 | 169 to 170 | 
14 | Cc1ccc(-c2cc(=O)c3c(O)cc(O)c(C4=CCN(C)CC4)c3o2)cc1 [Compound G3, 5,7-hydroxy-8-(1-methyl-1,2,3,6-tetrahydropyridin-4-yl)-2-(4-methylphenyl)-4H-chromen-4-one] | 3.42 | 160 to 161 | 
15 | COc1cccc(/C=C/C(=O)c2c(OC)cc(OC)c(C3=CCNCC3)c2O)c1OC [Compound B4, (E)-3-(2,3-dimethoxyphenyl)-1-(2-hydroxy-4,6-dimethoxy-3-(1,2,3,6-tetrahydropyridine-4-yl)phenyl)-2-propylene-1-one] | 4.47 | 109 to 110 | 
16 | COc1cc(OC)c(C2=CCN(C)CC2)c(O)c1C(=O)/C=C/c1ccco1 [Compound E1, (E)-3-(furan-2-yl)-1-(2-hydroxy-4,6-dimethoxy-3-(1-methyl-1,2,3,6-tetrahydro-pyridine-4-yl)phenyl)-2-propylene-1-one] | 10.2 | 145 to 146 | 
